Target: T1, hFXR (Homo sapiens, UniProt Q96RI1)
T1 construct: expressed in transfected cells; host or cells: CV-1 cells
T1 sequence (Q96RI1 1-486): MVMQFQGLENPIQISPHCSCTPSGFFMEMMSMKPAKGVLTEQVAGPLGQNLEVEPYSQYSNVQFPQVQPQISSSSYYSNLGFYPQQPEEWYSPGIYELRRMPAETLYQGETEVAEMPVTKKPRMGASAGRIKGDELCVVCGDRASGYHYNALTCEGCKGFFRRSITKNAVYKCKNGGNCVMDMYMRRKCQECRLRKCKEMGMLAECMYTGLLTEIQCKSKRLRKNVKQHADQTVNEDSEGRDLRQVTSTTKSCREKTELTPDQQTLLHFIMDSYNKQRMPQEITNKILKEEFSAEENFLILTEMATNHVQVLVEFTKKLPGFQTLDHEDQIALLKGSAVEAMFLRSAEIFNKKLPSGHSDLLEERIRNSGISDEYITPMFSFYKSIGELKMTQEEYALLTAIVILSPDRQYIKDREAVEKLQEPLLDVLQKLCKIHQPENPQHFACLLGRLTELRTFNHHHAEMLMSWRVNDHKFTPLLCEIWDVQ
T1 sequence (P19793 1-462 partner): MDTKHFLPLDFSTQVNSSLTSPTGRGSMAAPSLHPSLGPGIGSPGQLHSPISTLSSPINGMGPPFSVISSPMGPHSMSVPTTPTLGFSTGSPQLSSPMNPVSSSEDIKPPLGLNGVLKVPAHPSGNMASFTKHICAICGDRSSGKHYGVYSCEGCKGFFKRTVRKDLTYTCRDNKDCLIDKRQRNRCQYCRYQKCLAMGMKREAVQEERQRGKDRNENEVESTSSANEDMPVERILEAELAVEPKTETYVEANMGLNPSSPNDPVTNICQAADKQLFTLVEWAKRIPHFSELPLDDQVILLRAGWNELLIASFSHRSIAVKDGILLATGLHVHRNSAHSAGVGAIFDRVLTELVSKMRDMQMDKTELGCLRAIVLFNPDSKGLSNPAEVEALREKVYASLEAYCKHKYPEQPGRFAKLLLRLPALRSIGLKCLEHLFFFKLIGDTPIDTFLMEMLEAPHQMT
Test: In Vitro FXR Assay (TK): hFXR/hRXR TK-ECRE-luc reporter in transfected CV-1 cells
Assay type: cell-based
Details: CV-1 cells transfected with hFXR, hRXR, 18 hrs incubation, luminescence, maximum efficacy <25% of Fexarmine control also classified as ‘+’
Procedure: Example B-1: In Vitro FXR Assay (TK)
CV-1 cells were seeded at a density of 2,000,000 cells in a T175 flask with DMEM+10% charcoal double-stripped FBS and incubated at 37° C. in 5% CO2 for 18 h (O/N).
After 18 h of incubation, the medium in the T175 flask was changed with fresh DMEM+10% charcoal super-stripped serum. In a polypropylene tube, 2500 μL OptiMEM (Life Technologies, Cat #31985-062) was combined with expression plasmids for hFXR, hRXR, TK-ECRE-luc and pCMX-YFP. The tube was then briefly vortexed and incubated at room temperature for 5 minutes. Transfection reagent (X-tremeGENE HP from Roche, Cat #06 366 236 001) was added to the OptiMEM/plasmid mixture vortexed and incubated at room temperature for 20 minutes. Following incubation, the transfection reagent/DNA mixture complex was added to cells in the T175 flask and the cells were incubated at 37° C. in 5% CO2 for 18 h (0/N).
Compounds were serially diluted in DMSO and added to transfected CV-1 cells. The cells were then incubated for 18 hrs. The next day cells were lysed and examined for luminescence.

With COc1ccc([C@H]2CC[C@H](CN(c3cccc(-c4coc(C5CC5)n4)c3)C(=O)[C@H]3CC[C@H](O)CC3)CC2)nc1C#N [Compound 10.14, trans-N-((trans-4-(6-Cyano-5-methoxypyridin-2-yl)cyclohexyl)methyl)-N-(3-(2-cyclopropyloxazol-4-yl)phenyl)-4-hydroxycyclohexanecarboxamide] the EC50 was ≤ 500 nM.

In the case of COc1ccc([C@H]2CC[C@H](CN(c3cccc(C#Cc4nncs4)c3)C(=O)[C@H]3CC[C@H](O)CC3)CC2)cc1C [Compound 11.02, trans-N-(3-((1,3,4-Thiadiazol-2-yl)ethynyl)phenyl)-4-hydroxy-N-((trans-4-(4-methoxy-3-methylphenyl)cyclohexyl)methyl) cyclohexanecarboxamide], the EC50 is reported as ≤ 500 nM.

With COc1ccc([C@H]2CC[C@H](CN(c3cccc(-c4nc(C)ns4)c3)C(=O)[C@H]3CC[C@H](O)CC3)CC2)cc1C [Compound 2.08, trans-4-Hydroxy-N-((trans-4-(4-methoxy-3-methylphenyl)cyclohexyl)methyl)-N-(3-(3-methyl-1,2,4-thiadiazol-5-yl)phenyl)cyclohexanecarboxamide] the EC50 was 500 to 1000 nM.

COc1ccc([C@H]2CC[C@H](CN(c3cccc(-n4ncc(C)n4)c3)C(=O)[C@H]3CC[C@H](O)CC3)CC2)cc1C [Compound 9.10, trans-4-Hydroxy-N-((trans-4-(4-methoxy-3-methylphenyl)cyclohexyl)methyl)-N-(3-(4-methyl-2H-1,2,3-triazol-2-yl)phenyl)cyclohexanecarboxamide] was tested, and the EC50 was ≥ 1000 nM.

With COc1ccc([C@H]2CC[C@H](CN(c3cccc(-c4cc(C5CC5)ns4)c3)C(=O)[C@H]3CC[C@H](O)CC3)CC2)nc1C [Compound 10.08, trans-N-(3-(3-Cyclopropylisothiazol-5-yl)phenyl)-4-hydroxy-N-((trans-4-(5-methoxy-6-methylpyridin-2-yl)cyclohexyl)methyl) cyclohexanecarboxamide] the EC50 was ≤ 500 nM.

For COc1cnc(-c2cccc(N(C[C@H]3CC[C@H](c4ccc(OC)c(C)c4)CC3)C(=O)[C@H]3CC[C@H](O)CC3)c2)nc1 [Compound 2.01, trans-4-Hydroxy-N-((trans-4-(4-methoxy-3-methylphenyl)cyclohexyl)methyl)-N-(3-(5-methoxypyrimidin-2-yl)phenyl)cyclohexanecarboxamide], the EC50 was ≤ 500 nM.

With COc1ccc([C@H]2CC[C@H](CN(c3cccc(-c4cn(C)nn4)c3)C(=O)[C@H]3CC[C@H](O)CC3)CC2)cc1C [Compound 2.05, trans-4-Hydroxy-N-((trans-4-(4-methoxy-3-methylphenyl)cyclohexyl)methyl)-N-(3-(1-methyl-1H-1,2,3-triazol-4-yl)phenyl)cyclohexanecarboxamide] the EC50 was ≥ 1000 nM.

In the case of COc1ccc([C@H]2CC[C@H](CN(c3cccc(-c4ncn(C)n4)c3)C(=O)[C@H]3CC[C@H](O)CC3)CC2)cc1C [Compound 2.10, trans-4-Hydroxy-N-((trans-4-(4-methoxy-3-methylphenyl)cyclohexyl)methyl)-N-(3-(1-methyl-1H-1,2,4-triazol-3-yl)phenyl)cyclohexanecarboxamide], the EC50 is reported as ≥ 1000 nM.

With COc1ccc([C@H]2CC[C@H](CN(c3cccc(-c4cn(C)cn4)c3)C(=O)[C@H]3CC[C@H](O)CC3)CC2)cc1C [Compound 2.11, trans-4-Hydroxy-N-((trans-4-(4-methoxy-3-methylphenyl)cyclohexyl)methyl)-i-(3-(1-methyl-1H-imidazol-4-yl)phenyl)cyclohexanecarboxamide] the EC50 was ≥ 1000 nM.

For COc1cnc(-c2cccc(N(C[C@H]3CC[C@H](c4ccc(OC)c(C)c4)CC3)C(=O)[C@H]3CC[C@H](O)CC3)c2)cn1 [Compound 2.02, trans-4-Hydroxy-N-((trans-4-(4-methoxy-3-methylphenyl)cyclohexyl)methyl)-N-(3-(5-methoxypyrazin-2-yl)phenyl)cyclohexanecarboxamide], the EC50 was ≤ 500 nM.

In the case of COc1ccc([C@H]2CC[C@H](CN(c3cc(-c4ccc(N(C)C)nc4)ccn3)C(=O)[C@H]3CC[C@H](O)CC3)CC2)cc1C [Compound 1.11, trans-N-(6-(Dimethylamino)-[3,4′-bipyridin]-2′-yl)-4-hydroxy-N-((trans-4-(4-methoxy-3-methylphenyl)cyclohexyl)methyl)cyclohexanecarboxamide], the EC50 is reported as ≤ 500 nM.

COc1ccc([C@H]2CC[C@H](CN(c3cccc(-c4noc(C)n4)c3)C(=O)[C@H]3CC[C@H](O)CC3)CC2)cc1C [Compound 9.11, trans-4-Hydroxy-N-((trans-4-(4-methoxy-3-methylphenyl)cyclohexyl)methyl)-N-(3-(5-methyl-1,2,4-oxadiazol-3-yl)phenyl)cyclohexanecarboxamide] was tested, and the EC50 was 500 to 1000 nM.

With COc1ncc(-c2cccc(N(C[C@H]3CC[C@H](c4ccc(OC)c(C)c4)CC3)C(=O)[C@H]3CC[C@H](O)CC3)c2)cn1 [Compound 1.02, trans-4-Hydroxy-N-((trans-4-(4-methoxy-3-methylphenyl)cyclohexyl)methyl)-N-(3-(2-methoxypyrimidin-5-yl)phenyl)cyclohexanecarboxamide] the EC50 was ≤ 500 nM.

With COc1ccc([C@H]2CC[C@H](CN(c3cccc(-c4nnc(C)o4)c3)C(=O)[C@H]3CC[C@H](O)CC3)CC2)cc1C [Compound 6, trans-4-Hydroxy-N-((trans-4-(4-methoxy-3-methylphenyl)cyclohexyl)methyl)-N-(3-(5-methyl-1,3,4-oxadiazol-2-yl)phenyl)cyclohexanecarboxamide] the EC50 was ≥ 1000 nM.

With COc1ccc([C@H]2CC[C@H](CN(c3cccc(-c4ccc(C(C)C)nc4)c3)C(=O)[C@H]3CC[C@H](O)CC3)CC2)cc1C [Compound 2.03, trans-4-Hydroxy-I-(3-(6-isopropylpyridin-3-yl)phenyl)-N-((trans-4-(4-methoxy-3-methylphenyl)cyclohexyl)methyl)cyclohexanecarboxamide] the EC50 was ≤ 500 nM.

COc1ccc(-c2cccc(N(C[C@H]3CC[C@H](c4ccc(OC)c(C)c4)CC3)C(=O)[C@H]3CC[C@H](O)CC3)c2)cc1C [Compound 1.08, trans-4-Hydroxy-N-(4′-methoxy-3′-methyl-[1,1′-biphenyl]-3-yl)-N-((trans-4-(4-methoxy-3-methylphenyl)cyclohexyl)methyl)cyclohexanecarboxamide] showed an EC50 of 500 to 1000 nM.

For CCc1cc(-c2cccc(N(C[C@H]3CC[C@H](c4ccc(OC)c(C)c4)CC3)C(=O)[C@H]3CC[C@H](O)CC3)c2)ns1 [Compound 9.06, trans-N-(3-(5-Ethylisothiazol-3-yl)phenyl)-4-hydroxy-N-((trans-4-(4-methoxy-3-methylphenyl)cyclohexyl)methyl) cyclohexanecarboxamide], the EC50 was ≤ 500 nM.

With COc1ccc([C@H]2CC[C@H](CN(c3cccc(C#Cc4ncns4)c3)C(=O)[C@H]3CC[C@H](O)CC3)CC2)cc1C [Compound 11, trans-N-(3-((1,2,4-Thiadiazol-5-yl)ethynyl)phenyl)-4-hydroxy-N-((trans-4-(4-methoxy-3-methylphenyl)cyclohexyl)methyl)cyclohexanecarboxamide] the EC50 was ≤ 500 nM.

COc1ncc([C@H]2CC[C@H](CN(c3cc(-c4coc(C5CC5)n4)ccn3)C(=O)[C@H]3CC[C@H](O)CC3)CC2)cc1C [Compound 10.23, trans-N-(4-(2-Cyclopropyloxazol-4-yl)pyridin-2-yl)-4-hydroxy-N-((trans-4-(6-methoxy-5-methylpyridin-3-yl)cyclohexyl)methyl) cyclohexanecarboxamide] was tested, and the EC50 was ≤ 500 nM.

From patent US20200131129A1, “FARNESOID X RECEPTOR AGONISTS AND USES THEREOF” (Metacrine, Inc., priority 2017, published 2020)
